Source: US20180170942A1, “POLYCYCLIC DERIVATIVES TARGETING RAL GTPASES AND THEIR THERAPEUTICAL APPLICATIONS” (NANTBIO, INC., priority 2015, published 2018)

Tests used:
[1] = tested on: H2122 human lung cancer cells; assay: In vitro growth inhibition of human cancer cells under anchorage-independent conditions in soft agar (colony count); type: cell-based; settings: NCI-H2122, 336 h, 50% reduction in colony number vs DMSO controls, two weeks incubation, MTT stain
Procedure: In vitro growth inhibition of human cancer cells: Growth inhibition of human lung cancer cells by the compounds was measured under anchorage-independent conditions in soft agar. H2122 human lung cancer cells were seeded into 6-well plates (coated with a base layer made of 2 ml of 1% low-melting-point agarose) at 15,000 cells per well in 3 ml of 0.4% low-melting-point agarose containing various concentration of drug. Two weeks after incubation, cells were stained with 1 mg/ml MTT and colonies were counted under a microscope. […] Data are analyzed using Excel (Microsoft), and IC50 values are determined using Prism (Graphpad). The results of the in vitro H2122 growth inhibition activity of the representative compounds of the present invention are shown in the following Table: […]

[2] = tested on: MiaPaCa2 pancreatic cell line; settings: inhibitory effects were modest; cited from earlier work

`Cc1nccn1-c1ccc(C2C(C#N)=C(N)Oc3c2c(-c2cc4ccccc4o2)nn3C)cc1` (stereo not drawn) [Compound 40] showed an IC50 [1] of 1590 nM.

Molecule `Cn1nc(C(C)(C)C)c2c1OC(N)=C(C#N)C2c1ccc(-n2ccnc2)cc1` (stereo not drawn) [Compound 17] has an IC50 [1] of 1350 nM.

`Cc1nn(C)c2c1C(c1ccc(-n3ccnc3C)cc1)C(C#N)=C(N)O2` (stereo not drawn) [Compound 16] showed an IC50 [1] of 1020 nM.

In the case of `CC(=O)Nc1ccc(C2C(C#N)=C(N)Oc3c2c(C)nn3C)cc1` (stereo not drawn) [Compound 35], the IC50 [1] is reported as 2780 nM.

`Cc1n[nH]c2c1C(c1ccc(-n3ccnc3)cc1)C(C#N)=C(N)O2` (stereo not drawn) [Compound 10] gave an IC50 [1] of 900 nM.

Work on `CCCc1nn(C)c2c1C(c1cc(OC)ccc1OC)C(C#N)=C(N)O2` (stereo not drawn) [Compound 5] yielded an IC50 [1] of 3860 nM.

With `Cc1cn(-c2ccc(C3C(C#N)=C(N)Oc4c3c(C)nn4C)cc2)cn1` (stereo not drawn) [Compound 39] the IC50 [1] was 5110 nM.

For `COc1cccc(OC)c1C1C(C#N)=C(N)Oc2c1c(C)nn2C` (stereo not drawn) [Compound 11], the IC50 [1] was 2190 nM.

For `Cc1nn(-c2ccc(F)cc2)c2c1C(c1ccc(-n3ccnc3)cc1)C(C#N)=C(N)O2` (stereo not drawn) [Compound 44], the IC50 [1] was 980 nM.

`Cc1nn(C)c2c1C(c1ccc(-n3cncn3)cc1)C(C#N)=C(N)O2` (stereo not drawn) [Compound 33] gave an IC50 [1] of 2490 nM.

`COc1ccc(-c2nn(-c3ccccc3)c3c2C(c2ccc(-n4ccnc4)cc2)C(C#N)=C(N)O3)cc1` (stereo not drawn) [Compound 49] gave an IC50 [1] of 3150 nM.

With `Cc1nn(C(C)(C)C)c2c1C(c1ccc(-n3ccnc3)cc1)C(C#N)=C(N)O2` (stereo not drawn) [Compound 42] the IC50 [1] was 1120 nM.

For `COC(=O)[C@H](CC(C)C)NC(=O)N1CCN(Cc2nc[nH]c2C)C(=O)[C@@H]1Cc1ccccc1` [GGTI-2417], the “inhibition of in vitro growth and survival” value [2] is given as “inhibit the in vitro growth and survival”.

Work on `Cc1nn(C)c2c1C(c1ccc(-n3cnc4ccccc43)cc1)C(C#N)=C(N)O2` (stereo not drawn) [Compound 27] yielded an IC50 [1] of 840 nM.

For `Cc1n[nH]c2c1C(c1ccc(OC(F)(F)F)cc1)C(C#N)=C(N)O2` (stereo not drawn) [Compound 7], the IC50 [1] was 3210 nM.

In the case of `Cn1nc(-c2cc3ccccc3o2)c2c1OC(N)=C(C#N)C2c1ccc(C(F)(F)F)cc1` (stereo not drawn) [Compound 28], the IC50 [1] is reported as 3420 nM.

In the case of `Cc1nn(C)c2c1C(c1ccc(-n3cccn3)cc1)C(C#N)=C(N)O2` (stereo not drawn) [Compound 38], the IC50 [1] is reported as 5750 nM.

With `COc1ccc(-c2nn(C)c3c2C(c2ccc(-n4ccnc4)cc2)C(C#N)=C(N)O3)cc1` (stereo not drawn) [Compound 48] the IC50 [1] was 1320 nM.

In the case of `Cn1nc(Cc2ccccc2)c2c1OC(N)=C(C#N)C2c1ccc(-n2ccnc2)cc1` (stereo not drawn) [Compound 21], the IC50 [1] is reported as 890 nM.

For `Cc1nnc(-c2ccc(C3C(C#N)=C(N)Oc4c3c(C)nn4C)cc2)o1` (stereo not drawn) [Compound 32], the IC50 [1] was 2910 nM.

Molecule `COc1cc(OC)c(C2C(C#N)=C(N)Oc3[nH]nc(C)c32)c(OC)c1` (stereo not drawn) [Compound 8] has an IC50 [1] of 3280 nM.

For `Cc1nn(-c2ccccc2)c2c1C(c1ccc(-n3ccnc3)cc1)C(C#N)=C(N)O2` (stereo not drawn) [Compound 43], the IC50 [1] was 700 nM.

`Cn1nc(-c2cnccn2)c2c1OC(N)=C(C#N)C2c1ccc(-n2ccnc2)cc1` (stereo not drawn) [Compound 23] showed an IC50 [1] of 1080 nM.

In the case of `Cn1nc(-c2cc3ccccc3o2)c2c1OC(N)=C(C#N)C2c1ccc(OC(F)(F)F)cc1` (stereo not drawn) [Compound 29], the IC50 [1] is reported as 3910 nM.

For `Cc1nn(C)c2c1C(c1ccc(-c3ccccc3)cc1)C(C#N)=C(N)O2` (stereo not drawn) [Compound 12], the IC50 [1] was 4000 nM.

With `COc1ccc(-c2n[nH]c3c2C(c2ccc(-n4ccnc4)cc2)C(C#N)=C(N)O3)cc1` (stereo not drawn) [Compound 47] the IC50 [1] was 1320 nM.

In the case of `COc1cc(C2C(C#N)=C(N)Oc3c2c(C)nn3C)ccc1C(F)(F)F` (stereo not drawn) [Compound 13], the IC50 [1] is reported as 2990 nM.

For `Cn1nc(-c2cc3ccccc3o2)c2c1OC(N)=C(C#N)C2c1cc(Cl)cc(Cl)c1O` (stereo not drawn) [Compound 30], the IC50 [1] was 1710 nM.

`Cn1nc(-c2cc3ccccc3o2)c2c1OC(N)=C(C#N)C2c1ccc(-n2ccnc2)cc1` (stereo not drawn) [Compound 20] gave an IC50 [1] of 490 nM.

Work on `CC(C)c1nn(C)c2c1C(c1ccc(C(F)(F)F)cc1)C(C#N)=C(N)O2` (stereo not drawn) [Compound 26] yielded an IC50 [1] of 2960 nM.

In the case of `CCCc1n[nH]c2c1C(c1cc(Cl)cc(Cl)c1O)C(C#N)=C(N)O2` (stereo not drawn) [Compound 1], the IC50 [1] is reported as 2210 nM.

Molecule `Cc1nn(C)c2c1C(c1cccc(-c3cncnc3)c1)C(C#N)=C(N)O2` (stereo not drawn) [Compound 14] has an IC50 [1] of 5050 nM.

`Cn1nc(-c2ccccn2)c2c1OC(N)=C(C#N)C2c1ccc(-n2ccnc2)cc1` (stereo not drawn) [Compound 22] gave an IC50 [1] of 2040 nM.

`Cn1nc(C2CCCC2)c2c1OC(N)=C(C#N)C2c1ccc(-n2ccnc2)cc1` (stereo not drawn) [Compound 18] gave an IC50 [1] of 1280 nM.

`CCCc1nn(C)c2c1C(c1cc(Cl)cc(Cl)c1O)C(C#N)=C(N)O2` (stereo not drawn) [Compound 4] gave an IC50 [1] of 1590 nM.

`COc1ccc(OC)c(C2C(C#N)=C(N)Oc3c2c(-c2cc4ccccc4o2)nn3C)c1` (stereo not drawn) [Compound 31] showed an IC50 [1] of 6210 nM.

Molecule `Cn1nc(-c2n[nH]c3ccccc23)c2c1OC(N)=C(C#N)C2c1ccc(-n2ccnc2)cc1` (stereo not drawn) [Compound 41] has an IC50 [1] of 1820 nM.

In the case of `Cc1nn(-c2ccncc2)c2c1C(c1ccc(-n3ccnc3)cc1)C(C#N)=C(N)O2` (stereo not drawn) [Compound 46], the IC50 [1] is reported as 2080 nM.

For `Cc1n[nH]c2c1C(c1ccc(C(F)(F)F)cc1)C(C#N)=C(N)O2` (stereo not drawn) [Compound 9], the IC50 [1] was 5050 nM.

Work on `Cc1nn(C)c2c1C(c1ccc(N3CCCC3)cc1)C(C#N)=C(N)O2` (stereo not drawn) [Compound 36] yielded an IC50 [1] of 8390 nM.

`Cc1nn(C)c2c1C(c1ccc(N(C)C)cc1)C(C#N)=C(N)O2` (stereo not drawn) [Compound 34] showed an IC50 [1] of over 10000 nM.

In the case of `Cc1nn(C)c2c1C(c1ccc(-c3ncccn3)cc1)C(C#N)=C(N)O2` (stereo not drawn) [Compound 24], the IC50 [1] is reported as 6130 nM.

In the case of `CCCc1n[nH]c2c1C(c1ccc3ccccc3c1)C(C#N)=C(N)O2` (stereo not drawn) [Compound 3], the IC50 [1] is reported as 3720 nM.

With `COc1cc(C(F)(F)F)ccc1C1C(C#N)=C(N)Oc2c1c(C)nn2C` (stereo not drawn) [Compound 15] the IC50 [1] was 1710 nM.

Molecule `COc1ccc(-n2nc(C)c3c2OC(N)=C(C#N)C3c2ccc(-n3ccnc3)cc2)cc1` (stereo not drawn) [Compound 45] has an IC50 [1] of 1620 nM.

With `CC(C)c1nn(C)c2c1C(c1ccc(-n3ccnc3)cc1)C(C#N)=C(N)O2` (stereo not drawn) [Compound 25] the IC50 [1] was 1070 nM.

`CCCc1n[nH]c2c1C(c1cc(OC)ccc1OC)C(C#N)=C(N)O2` (stereo not drawn) [Compound 2] gave an IC50 [1] of 3560 nM.

`Cc1nn(C)c2c1C(c1ccc(-n3cccc3)cc1)C(C#N)=C(N)O2` (stereo not drawn) [Compound 37] showed an IC50 [1] of 6020 nM.
